Data set [1] relates to ROS in VSMCs. Kind of data set: ROS generation in VSMCs analyzed by FACS (CM-H2CFDA fluorescence). Type of data set: cell-based. As to conditions: 45 minutes. The procedure: (§1) VSMC were seeded (1.25×10^5 cells/well in 12-well plates) and incubated at 37° C. for 24 hr. Cultures were then subjected to various treatments (as shown in Table 1) to induce ROS for 45 minutes (at 37° C.) along with 10 μM CM-H2CFDA (Molecular Probes, Inc., Eugene, Oreg.). CM-H2DCFDA is a chloromethyl derivative of H2DCFDA, useful as an indicator for ROS in cells. Subsequent oxidation of CM-H2CFDA yields a fluorescent adduct that is trapped inside the cell. At the end of treatment period cells were trypsinized, washed, and analyzed by FACS for ROS (CM-H2CFDA fluorescence) and viability using a viability stain (BD Horizon Fixable Viability Stain 660; BD Biosciences, San Jose, Calif.).

Data set [2] deals with VSMCs. Kind of data set: Cell viability in VSMCs analyzed by FACS (viability stain). To be noted: 45 minutes. Type of data set: cell-based. The procedure: as §1
A general note: Flow cytometry measures light scatter and fluorescence of single cells or particles in a stream.

Data set [3] in a line: DPPH colorimetric anti-oxidant assay. To be noted: incubation with DPPH, various concentrations. Type of data set: biochemical. The source says: In this colorimetric assay, DPPH functions as a free radical that can be inactivated by anti-oxidant compounds resulting in loss of color. […] Zinc was not tested alone since it was not completely soluble in the organic solvents needed for the assay. Ascorbic Acid functions as an antioxidant positive control.
A general note: DPPH is a stable violet radical that fades when it is reduced.

For data set [4], the system named is RAW264.7 macrophage cells. Kind of data set: FACS analysis of cell viability in M2 activated RAW264.7 cultures. It is filed as cell-based. The procedure: RAW264.7 macrophage cells, untreated and treated with IL-4 (20 ng/ml), were stained with 1:1000 diluted viability stain (BD Horizon Fixable Viability Stain 660). Cells were analyzed by FACS and gated for unstained (viable) and stained (non-viable) populations.

Data set [5] relates to RAW264.7 macrophage cells. Kind of data set: Charcoal phagocytosis assay in activated RAW264.7 macrophage cells. As to conditions: during M1 activation (1 μg/ml LPS/20 ng/ml IFN); 50 μM CHP, 10 μM Zn. It is filed as cell-based. The procedure: RAW264.7 macrophage cells (ATCC® TIB-71) were activated to either inflammatory M1 macrophage phenotype (with 1 μg/ml LPS/20 ng/ml IFN) or to the anti-inflammatory M2 phenotype (with 20 ng/ml IL-4) in the presence or absence of Cyclo-Z (50 μM CHP/10 μM Zn) treatment. Charcoal dust was added to the culture as a marker of M1 phagocytosis activity.
To compare between CHP and Zinc effects in Cyclo-Z on charcoal binding activities, we determined the phagocytosis activity of CHP (50 μM CHP) or Zinc (10 μM Zn) alone or Cyclo-Z during activation of M1 macrophages (with 1 μg/ml LPS/20 ng/ml IFN).

Data set [6] deals with mouse spleen cells (B-cell activation). Kind of data set: B-cell activation in mouse spleen cells. Type of data set: cell-based. To be noted: alone, 4 days; LPS 1 μg/ml; Cyclo-Z 50 μM CHP/10 μM Zn. The procedure: Mouse spleen cells were isolated from wild type C57BL/6J mice (The Jackson Laboratory; strain 000632) and plated under standard cell culture conditions in the presence or absence of Cyclo-Z (50 μM CHP/10 μM zinc) and/or LPS for 4 days. Nodules indicating increased B-cell activation and proliferation were visualized by microscopy.

[7] abbreviates: added with IL-4 (20 ng/ml), M2 activated.

Turning to `OO` [H2O2, hydrogen peroxide], the “ROS Population” value in data set [1] (H2O2 (5 μL) alone) is 81.33; in data set [1] (H2O2 (10 μL) alone), 50.63. The “Viability Population” value in data set [2] (H2O2 (5 μL) alone) is 22.31; in data set [2] (H2O2 (10 μL) alone), 7.33.
Take `O=C1N[C@@H](Cc2cnc[nH]2)C(=O)N2CCC[C@@H]12` [CHP, cyclo-Hispro]: the “anti-oxidant activity (DPPH)” value in data set [3] is reported as “concentration dependent anti-oxidant activity”. In data set [4] (setting [7]), the “Percent Non-Viability” value is on record as 14.13% and the “Percent Viability (Stained)” value is reported as 73.63%. Further, the “charcoal uptake (phagocytosis activity)” value in data set [5] is “did not show any effects”.
On to lipopolysaccharide [LPS], for which the “ROS Population” value in data set [1] (LPS alone) worked out at 0.09. For the same compound, the “Viability Population” value in data set [2] (LPS alone) was found to be 75.81. In addition, the “B-cell activation/proliferation (nodules)” value in data set [6] is recorded as “induced some B-cell activation/proliferation”.
For the compound “IL-4: Interleukin-4, cytokine used to activate macrophages to M2 phenotype”, the “Percent Non-Viability” value in data set [4] (IL-4 (20 ng/ml) alone) is reported as 17.63%.
In the case of `OC[C@H]1OC(O)[C@H](O)[C@@H](O)[C@@H]1O` (stereo partly shown) [HG], the “ROS Population” value in data set [1] (HG (50 mM) alone) and in data set [1] (HG (100 mM) alone) was 0.04 throughout. Moreover, the “Viability Population” value in data set [2] (HG (50 mM) alone) amounted to 61.63; in data set [2] (HG (100 mM) alone) it was 63.9.
On to `[Cl-].[Cl-].[Zn+2]` [Zinc, ZnCl2], for which, in data set [4] (setting [7]), the “Percent Non-Viability” value is 33.49% and the “Percent Viability (Stained)” value is given as 58.47%. The “charcoal uptake (phagocytosis activity)” value in data set [5] was “somewhat effective”.
